Experimental data published in paper PMC8396344, “Palmitoylation of Prolactin-Releasing Peptide Increased Affinity for and Activation of the GPR10, NPFF-R2 and NPFF-R1 Receptors: In Vitro Study” (International Journal of Molecular Sciences, 2021).
Values belong to the molecule of their own block, whether it stands above or below them. Starred links: 1 amine or outer side, 2 acyl side, 3 side chain; linkers in the order of their positions; H or OH if unused. Non-standard residues stand in square brackets, D forms with d. Residues, ends and D or L forms follow the SMILES beside them. Groups on a side chain read outwards from the residue. *: point of attachment. γGlu = O=C(O)[C@H](CCC(=O)[*:2])N[*:1]; Palmitoyl = CCCCCCCCCCCCCCCC(=O)*; NMeF = CN[C@@H](Cc1ccccc1)C(=O)O

Assays:
NPFF-R2 [1] = molecular target: T1, NPFF-R2 (Homo sapiens, UniProt Q9Y5X5); assay: Cell signaling by immunoblotting, CHO-K1 cells expressing NPFF-R2; assay type: cell-based; conditions: dose-response 10^−11 to 10^−5 M, 5 min, 37 °C, immunoblot, at least two experiments
T1 construct: host or cells: CHO-K1 (AequoScreen, co-expressing aequorin)
Protocol: Cells were seeded in 24-well plates at 30,000 cells/well in assay medium (growth medium without selective antibiotics) and were grown for 2 days. The day before the experiment, the medium was changed to serum-free medium. […] Cells were lysed with Laemmli sample buffer (62.5 mM Tris-HCl at pH 6.8, 2% SDS, 10% glycerol, 0.01% bromophenol blue, 5% β-mercaptoethanol, 50 mM NaF, and 1 mM Na3VO4). Samples were stored at −20 °C. Electrophoresis and immunoblotting were performed as described previously. For detection of signaling pathways, primary monoclonal antibodies (see Table 5 for the antibodies used) purchased from Cell Signaling Technology (Danvers, MA, USA) were used.
(§1) Experiments using immunoblotting were analyzed using one-way ANOVA followed by Dunnett’s post hoc test; p < 0.05 was considered statistically significant. Dose-response curves were obtained from nonlinear regression.

DOR = molecular target: T2, DOR (Homo sapiens, UniProt P41143); assay: Beta-lactamase reporter gene assay (FRET), DOR; assay type: cell-based; conditions: β-lactamase assay, agonist mode, U2OS cells; mean ± SEM, 2–3 independent experiments in duplicates
T2 construct: host or cells: U2OS

ORL-1 = molecular target: T3, ORL-1 (Homo sapiens, UniProt P41146); assay: Beta-lactamase reporter gene assay (FRET), ORL-1; assay type: cell-based; conditions: β-lactamase assay, agonist mode, U2OS cells; mean ± SEM, 2–3 independent experiments in duplicates
T3 construct: host or cells: U2OS

MOR = molecular target: T4, MOR (Homo sapiens, UniProt P35372); assay: Beta-lactamase reporter gene assay (FRET), MOR; assay type: cell-based
T4 construct: host or cells: U2OS

GPR10 = molecular target: T5, GPR10 (Homo sapiens, UniProt P49683); assay: Cell signaling by immunoblotting, CHO-K1 cells expressing GPR10; assay type: cell-based; conditions: dose-response 10^−11 to 10^−5 M, 5 min, 37 °C, immunoblot, at least two experiments
T5 construct: host or cells: CHO-K1
T5 sequence (P49683 1-370): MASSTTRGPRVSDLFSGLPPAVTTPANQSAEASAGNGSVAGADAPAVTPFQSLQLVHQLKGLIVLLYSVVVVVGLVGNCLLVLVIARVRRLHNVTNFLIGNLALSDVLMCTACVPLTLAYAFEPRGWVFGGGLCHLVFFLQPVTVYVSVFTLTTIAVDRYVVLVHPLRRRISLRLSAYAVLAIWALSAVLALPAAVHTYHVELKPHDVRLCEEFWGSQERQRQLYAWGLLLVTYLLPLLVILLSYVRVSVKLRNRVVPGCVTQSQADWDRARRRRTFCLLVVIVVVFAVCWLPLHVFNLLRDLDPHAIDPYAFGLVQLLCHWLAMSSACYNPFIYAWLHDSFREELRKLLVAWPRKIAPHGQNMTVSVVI
Protocol: Activation of signaling pathways was studied in the CHO-K1 cell lines containing GPR10, NPFF-R2 and NPFF-R1. Cells were seeded in 24-well plates at 30,000 cells/well in assay medium (growth medium without selective antibiotics) and were grown for 2 days. The day before the experiment, the medium was changed to serum-free medium. […] Cells were lysed with Laemmli sample buffer (62.5 mM Tris-HCl at pH 6.8, 2% SDS, 10% glycerol, 0.01% bromophenol blue, 5% β-mercaptoethanol, 50 mM NaF, and 1 mM Na3VO4). Samples were stored at −20 °C. Electrophoresis and immunoblotting were performed as described previously. For detection of signaling pathways, primary monoclonal antibodies (see Table 5 for the antibodies used) purchased from Cell Signaling Technology (Danvers, MA, USA) were used.
as §1

Y1 = molecular target: T6, Y1 (Homo sapiens, UniProt P25929); assay: Competitive and saturation binding, [^125I]-PYY, U2OS cells with Y1
T6 construct: host or cells: U2OS
T6 sequence (P25929 1-384): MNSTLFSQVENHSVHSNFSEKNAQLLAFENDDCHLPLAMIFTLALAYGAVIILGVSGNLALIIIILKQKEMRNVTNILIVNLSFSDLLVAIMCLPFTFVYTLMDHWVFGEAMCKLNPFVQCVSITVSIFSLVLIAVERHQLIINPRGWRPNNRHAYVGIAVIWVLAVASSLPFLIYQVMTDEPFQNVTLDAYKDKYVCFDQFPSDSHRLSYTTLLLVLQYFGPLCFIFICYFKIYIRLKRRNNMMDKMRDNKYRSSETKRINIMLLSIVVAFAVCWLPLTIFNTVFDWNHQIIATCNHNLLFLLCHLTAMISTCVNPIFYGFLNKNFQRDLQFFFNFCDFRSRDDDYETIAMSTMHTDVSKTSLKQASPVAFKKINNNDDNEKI
Protocol: (§2) Competition binding experiments were performed according to [45]. […] Binding experiments using U2OS cells were optimized and performed in assay buffer (50 mM Tris-Cl pH 7.4, 118 mM NaCl, 5 mM MgCl2, 4.7 mM KCl, 0.1% BSA) for cells stably expressing GHSR and (25 mM HEPES, 120 mM NaCl, 5 mM MgCl2, 4.7 mM KCl, 1 mM CaCl2, 0.5% BSA, 2 g/L glucose) for cells containing receptors Y1, Y2 and Y5. […] Cells were incubated for 60 min at room temperature (RT).
(§3) Experiments were carried out in duplicate at least three times, and Ki was calculated using the Cheng-Prusoff equation.
(§4) Data were analyzed by GraphPad Software (San Diego, CA, USA) and are presented as the means ± SEM. The saturation and competitive binding experiments were analyzed according to [46] using the Cheng-Prusoff equation [33]. The competitive binding curves were plotted compared to the best fit for single-binding site models, and half maximal inhibitory concentration (IC50) values were obtained from nonlinear regression analysis. From saturation binding experiments, the dissociation constant (Kd) and number of binding sites/cell (Bmax) were calculated. Inhibition constants (Ki) were calculated from IC50 values, Kd and the concentration of radioligands.

KOR = molecular target: T7, KOR (Homo sapiens, UniProt P41145); assay: cell-based
T7 construct: host or cells: CHO-K1

NPFF-R2 [2] = molecular target: T1, NPFF-R2; assay: Intracellular Ca^2+ mobilization, AequoScreen CHO-K1 cells with NPFF-R2; assay type: cell-based; conditions: CHO-K1 NPFF-R2 aequorin cells; peptides 10^−12 to 10^−5 M; mean ± SEM, three times in duplicates; read-out: EC50 intracellular Ca^2+ release, NPFF-R2
Protocol: The intracellular Ca^2+ level was measured using the AequoScreen stable CHO-K1 cell line containing NPFF-R2 purchased from Perkin Elmer according to the manufacturer’s protocol. Cells at 80–90% confluence cultured in media without selective antibiotics were detached (PBS pH 7.4 + 0.5 mM EDTA) and centrifuged. Cells resuspended in phenol red-free DMEM with 0.1% protease-free BSA and 5 µM coelenterazine h (Thermo Fisher Scientific Inc. Brand) were seeded at 50,000 cells/well in 96-well plates and incubated in the dark at RT with gentle agitation for 4 h. Peptides were tested at concentrations from 10^−12 to 10^−5 M. Luminescent light emission was recorded using a FlexStation 3 plate reader.
Ca^2+ release assay data are shown as the percentage of maximal response, and the results were analyzed by nonlinear regression as log agonist versus response using GraphPad software. Data are representative of at least three experiments, each performed in duplicate.

Y2 = molecular target: T8, Y2 (Homo sapiens, UniProt P49146); assay: Competitive and saturation binding, [^125I]-PYY, U2OS cells with Y2
T8 construct: host or cells: U2OS
T8 sequence (P49146 1-381): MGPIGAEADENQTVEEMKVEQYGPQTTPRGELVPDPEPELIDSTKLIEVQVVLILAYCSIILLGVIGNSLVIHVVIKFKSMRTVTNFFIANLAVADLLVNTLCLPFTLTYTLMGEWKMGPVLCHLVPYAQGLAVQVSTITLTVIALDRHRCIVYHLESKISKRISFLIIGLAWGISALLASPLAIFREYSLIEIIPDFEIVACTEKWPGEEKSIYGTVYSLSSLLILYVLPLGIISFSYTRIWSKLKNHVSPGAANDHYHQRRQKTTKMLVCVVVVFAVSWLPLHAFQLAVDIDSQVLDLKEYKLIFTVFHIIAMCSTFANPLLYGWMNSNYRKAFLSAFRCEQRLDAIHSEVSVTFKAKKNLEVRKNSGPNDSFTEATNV
Protocol: as §2, §3, §4

kappa-opioid receptor = kappa-opioid receptor (UniProt P41145 1-380); assay: radioligand binding; competition with [^125I]-dynorphin A on plasma membranes of CHO-K1 cells with KOR, 5 µg protein/tube; 50 mM Tris-HCl pH 7.4, 60 mM NaCl, 1 mM MgCl2, 0.5% BSA; 60 min at RT; filtration; Ki by the Cheng-Prusoff equation

EC50 of ERK activation (NPFF-R2 [1]): in nanomolar concentrations
Molecule: CC(C)C[C@H](NC(=O)[C@H](N)Cc1ccc(O)cc1)C(=O)N(C)[C@@H](Cc1ccccc1)C(=O)N[C@@H](CCC(N)=O)C(=O)N1CCC[C@H]1C(=O)N[C@@H](CCC(N)=O)C(=O)N[C@@H](CCCNC(=N)N)C(=O)N[C@@H](Cc1ccccc1)C(N)=O [1DMe] (H-[dY]L[NMeF]QPQRF-NH2)

Molecule: CCCCCCCCCCCCCCCC(=O)N[C@@H](CCC(=O)NCCCC[C@H](NC(=O)[C@@H](NC(=O)[C@H](CCC(=O)O)NC(=O)[C@H](CCSC)NC(=O)[C@H](CO)NC(=O)[C@H](Cc1c[nH]cn1)NC(=O)[C@H](CCCNC(=N)N)NC(=O)[C@H](Cc1c[nH]cn1)NC(=O)[C@@H](NC(=O)[C@H](CCCNC(=N)N)NC(=O)[C@@H](N)CO)[C@@H](C)O)[C@@H](C)CC)C(=O)N[C@H](C(=O)N1CCC[C@H]1C(=O)N[C@@H](CC(=O)O)C(=O)N[C@H](C(=O)N[C@@H](CC(N)=O)C(=O)N1CCC[C@H]1C(=O)N[C@@H](C)C(=O)N[C@@H](Cc1c[nH]c2ccccc12)C(=O)N[C@@H](Cc1ccc(O)cc1)C(=O)N[C@@H](C)C(=O)N[C@@H](CO)C(=O)N[C@@H](CCCNC(=N)N)C(=O)NCC(=O)N[C@H](C(=O)N[C@@H](CCCNC(=N)N)C(=O)N1CCC[C@H]1C(=O)N[C@H](C(=O)NCC(=O)N[C@@H](CCCNC(=N)N)C(=O)N[C@@H](Cc1ccccc1)C(N)=O)C(C)C)[C@@H](C)CC)[C@@H](C)CC)[C@@H](C)O)C(=O)O [Palm^11-PrRP31] (H-SRTHRHSMEIK([γGlu-Palmitoyl])TPDINPAWYASRGIRPVGRF-NH2)
EC50 (DOR): > 10 µM
EC50 (ORL-1): > 10 µM
EC50 (MOR): > 10 µM
EC50 of ERK activation (GPR10): in the nanomolar range
Ki (Y1): > 10 µM
EC50 (KOR): > 10 µM
EC50 (NPFF-R2 [2]): 0.0187 ± 0.00131 µM
Ki (Y2): > 10 µM

Ki (kappa-opioid receptor): 0.00036 µM
Molecule: [D-Pro10]-dynorphin A (peptide)
